Results published in patent publication US4451399A, “Imidazolecarboxylic acid derivatives” (priority 1979, dated 1984).
≈ marks a conversion by molar mass, not a printed value.

Columns and labels:
[1] = tested on: Pseudomonas aeruginosa AJ 2116; test: Minimum Inhibitory Concentration (MIC) against Pseudomonas aeruginosa AJ 2116 in a culture; assay type: cell-based; conditions: AJ2116, minimum concentration required to inhibit growth of test organism in a culture
Protocol: Antibacterial activity was determined with regards to the compounds produced in the examples described above. Some of Comparative Minimum Inhibitory Concentrations (MIC) (the minimum concentration of the compound in micrograms per milliliter required to inhibit the growth of the test organism in a culture) obtained using Pseudomonas aeruginosa AJ 2116 as the test organism, are presented in Table 5.

[2] = Concentration in blood after oral administration to mice (oral absorption); assay type: in vivo; conditions: Mouse (ICR 5W male), oral 50 mg/kg; for concentration at 0.5 h: 30 minutes; for concentration at 1 h: 60 minutes; for concentration at 1.5 h: 90 minutes
Excerpt: The imidazolecarboxylic acid derivatives of the present invention have a good oral absorption, as is evident from Table 6.
Concentration in Blood (μg/ml)

Row | SMILES | MIC [1] [µg/mL] | concentration at 0.5 h [2] [µg/mL] | concentration at 1 h [2] [µg/mL] | concentration at 1.5 h [2] [µg/mL]
1 | CC1(C)S[C@@H]2[C@H](NC(=O)[C@H](N)c3ccccc3)C(=O)N2[C@H]1C(=O)O [Ampicillin, reference compound] | > 500 | 81 | 306 | 41
2 | CC1(C)S[C@@H]2[C@H](NC(=O)[C@H](NC(=O)c3[nH]cnc3Cl)c3ccccc3)C(=O)N2[C@H]1C(=O)O [Example 3] | 25 (≈ 52.3 µM) | – | – | –
3 | Cc1nc(S)[nH]c1C(=O)N[C@@H](C(=O)N[C@@H]1C(=O)N2[C@@H]1SC(C)(C)[C@@H]2C(=O)O)c1ccccc1 [Example 8] | 25 (≈ 51.1 µM) | – | – | –
4 | CCOC(=O)c1nc[nH]c1C(=O)N[C@@H](C(=O)N[C@@H]1C(=O)N2[C@@H]1SC(C)(C)[C@@H]2C(=O)O)c1ccccc1 [Example 13, D-α-(4-ethoxycarbonylimidazole-5-carboxyamide) benzylpenicillin] | 25 (≈ 48.5 µM) | 340 | 97 | 40

Continued by falling MIC [1], values first:

Row | MIC [1] [µg/mL] | SMILES | concentration at 0.5 h [2] [µg/mL] | concentration at 1 h [2] [µg/mL] | concentration at 1.5 h [2] [µg/mL]
5 | 100 (≈ 264 µM) | CC1(C)S[C@@H]2[C@H](NC(=O)C(C(=O)O)c3ccccc3)C(=O)N2[C@H]1C(=O)O (stereo partly drawn) [Carbenicillin, reference compound] | – | – | –
6 | 12.5 (≈ 25.6 µM) | CC1(C)S[C@@H]2[C@H](NC(=O)[C@H](NC(=O)c3[nH]cnc3[N+](=O)[O-])c3ccccc3)C(=O)N2[C@H]1C(=O)O [Example 1, D-α-(4-nitroimidazole-5-carboxyamide) benzyl penicillin] | – | – | –
